One experiment concerns TNFSF10. Set-up: species or system human.
For the next experiment, the system named is CXCL1. Set-up: species or system human.
Another experiment has as its system IFNG. Set-up: species or system human.
A further experiment deals with MIG. Set-up: species or system human.
The target in the next experiment is aromatase (Homo sapiens, UniProt P11511). Conditions: in vivo; cited from earlier work.
For another experiment, the system named is CCL11. The experiment in a line: Drugs that upregulate or downregulate iAge marker (Table 9). Set-up: species or system human. Conditions: GENE CCL11; beneficial (lowers) or detrimental (raises) to iAge.
The test system of another experiment is Mouse thoracic aortas. The experiment in a line: Acetylcholine relaxation of mouse thoracic aortic rings on wire myograph after MIG. Conditions: increasing concentrations of recombinant mouse MIG, precontracted with U46619. On the procedure: Mouse thoracic aortas were carefully dissected, and vessels were cut into small rings and mounted on an isometric wire myograph chambers (Danish Myo Technology) and subjected to a normalization protocol. Following normalization, the vessels were incubated with either PBS or different concentrations of recombinant mouse MIG (R&D systems, catalog number 492-MM). A concentration-dependent contraction curve was created by accumulative application of the prostaglandin agonist U46619. Subsequently, concentration-dependent relaxation curves of Acetylcholine were conducted on these vessels and percent relaxation calculated for each dose.

[1] abbreviates: GENE TNFSF10, beneficial (lowers) or detrimental (raises) to iAge.
[2] abbreviates: GENE CXCL1, beneficial (lowers) or detrimental (raises) to iAge.
[3] abbreviates: GENE IFNG, beneficial (lowers) or detrimental (raises) to iAge.
Where [4] appears, read: GENE CXCL9 (MIG), beneficial (lowers) or detrimental (raises) to iAge.

“Also recorded” adds a separate entry of the source. Like-named read-outs stand apart in the source and are kept apart here.

Sequence of TNFSF10 (P50591 whole entry): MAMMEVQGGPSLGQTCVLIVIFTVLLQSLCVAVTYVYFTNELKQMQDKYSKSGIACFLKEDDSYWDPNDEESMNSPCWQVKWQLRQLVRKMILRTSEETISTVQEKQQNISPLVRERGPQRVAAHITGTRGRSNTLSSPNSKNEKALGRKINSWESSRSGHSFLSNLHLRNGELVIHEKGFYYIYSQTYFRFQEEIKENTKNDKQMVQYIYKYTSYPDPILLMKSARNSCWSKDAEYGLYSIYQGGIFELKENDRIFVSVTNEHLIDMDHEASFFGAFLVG
Sequence of aromatase (P11511 whole entry): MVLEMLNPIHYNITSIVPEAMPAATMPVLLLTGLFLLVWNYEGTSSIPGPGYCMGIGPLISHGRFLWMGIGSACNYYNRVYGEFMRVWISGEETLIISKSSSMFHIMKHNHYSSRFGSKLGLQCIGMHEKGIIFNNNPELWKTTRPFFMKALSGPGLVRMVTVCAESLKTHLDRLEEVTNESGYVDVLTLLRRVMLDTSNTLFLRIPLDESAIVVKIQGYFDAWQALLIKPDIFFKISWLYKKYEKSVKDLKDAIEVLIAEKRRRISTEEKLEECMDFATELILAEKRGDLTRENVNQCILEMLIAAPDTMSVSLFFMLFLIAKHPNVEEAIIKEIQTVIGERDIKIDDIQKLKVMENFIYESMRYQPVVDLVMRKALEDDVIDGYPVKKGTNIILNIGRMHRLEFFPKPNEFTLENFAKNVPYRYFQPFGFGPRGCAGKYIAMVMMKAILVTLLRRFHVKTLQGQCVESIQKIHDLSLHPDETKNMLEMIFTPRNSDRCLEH

`CC(=O)Nc1ccc(O)cc1` [Acetaminophen]: the EFFECT entry with TNFSF10 is listed as “Detrimental”.
As to `CC(=O)N[C@@H](CS)C(=O)O` [Acetylcysteine, reference compound], the EFFECT entry in the experiment on TNFSF10 (setting [1]) is recorded as “Detrimental”.
As for `CC1=C(/C=C/C(C)=C\C=C\C(C)=C\C(=O)O)C(C)(C)CCC1` [Alitretinoin, reference compound], the EFFECT result in the experiment on CXCL1 (setting [2]) is listed as “Detrimental”; with IFNG (setting [3]) it was “Detrimental”; in the experiment with TNFSF10 (setting [1]), “Beneficial”.
For `CC1=C(/C=C/C(C)=C/C=C/C(C)=C/C=C/C=C(C)/C=C/C=C(C)/C=C/C2=C(C)CCCC2(C)C)C(C)(C)CCC1` [Beta carotene], the EFFECT result in the experiment on MIG is “Detrimental”; in the experiment with TNFSF10, “Beneficial”.
`CC(C)C[C@H](NC(=O)[C@H](Cc1ccccc1)NC(=O)c1cnccn1)B(O)O` [Bortezomib, reference compound]: the results for the EFFECT result in the experiment on CXCL1 (setting [2]) and in the experiment with TNFSF10 (setting [1]) were “Beneficial” and “Detrimental”, respectively.
Consider `COc1cc(CNC(=O)CCCC/C=C/C(C)C)ccc1O` [Capsaicin, reference compound], for which the EFFECT entry with TNFSF10 (setting [1]) is listed as “Beneficial”.
Same read-out and setting: with `[Cr]` [Chromium] the entry was “Detrimental”.
In the case of `CN/C(=N/CCSCc1nc[nH]c1C)NC#N` [Cimetidine], the EFFECT entry in the experiment on IFNG is “Beneficial”.
On to `N.N.[Cl][Pt][Cl]` [Cisplatin], for which, in the experiment with TNFSF10 (setting [1]), the EFFECT entry is reported as “Beneficial”.
On to `Nc1ccn([C@@H]2O[C@H](CO)[C@@H](O)[C@@H]2O)c(=O)n1` [Cytarabine], for which the EFFECT result with TNFSF10 (setting [1]) is given as “Beneficial”.
Turning to `Nc1ncn([C@H]2C[C@H](O)[C@@H](CO)O2)c(=O)n1` [Decitabine, 5-aza-2′-deoxycytidine, reference compound], in the experiment with TNFSF10 (setting [1]), the EFFECT entry was “Beneficial”.
As to `COc1cccc2c1C(=O)c1c(O)c3c(c(O)c1C2=O)C[C@@](O)(C(=O)CO)C[C@@H]3O[C@H]1C[C@H](N)[C@H](O)[C@H](C)O1` [Doxorubicin], the EFFECT result with TNFSF10 (setting [1]) was “Beneficial”.
For the molecule `CCCCCc1cc(O)c2c(c1)OC(C)(C)[C@@H]1CCC(C)=C[C@@H]21` [Dronabinol, reference compound], the EFFECT entry in the experiment with IFNG (setting [3]) is on record as “Detrimental”.
Turning to `C=CCc1ccc(O)c(OC)c1` [Eugenol], in the experiment on CXCL1 (setting [2]), the EFFECT result was “Beneficial”.
In the case of `O=c1[nH]cc(F)c(=O)[nH]1` [Fluorouracil, reference compound], the EFFECT result in the experiment on TNFSF10 (setting [1]) is on record as “Beneficial”.
For `[Gd]` [Gadolinium], the EFFECT result in the experiment with IFNG (setting [3]) is listed as “Beneficial”.
For the molecule `Nc1ccn([C@@H]2O[C@H](CO)[C@@H](O)C2(F)F)c(=O)n1` [Gemcitabine], the EFFECT result with CXCL1 (setting [2]) is “Beneficial”.
In the case of `NCCc1c[nH]cn1` [Histamine, reference compound], in the experiment on IFNG, the EFFECT entry is “Detrimental”.
As to `[Fe]` [Iron], the EFFECT result in the experiment with TNFSF10 (setting [1]) is recorded as “Beneficial”.
Take `CC1=C(/C=C/C(C)=C/C=C/C(C)=C\C(=O)O)C(C)(C)CCC1` [Isotretinoin]: the EFFECT entry with CXCL1 (setting [2]) is reported as “Detrimental”; in the experiment on TNFSF10 (setting [1]), “Beneficial”.
In the case of `N#Cc1ccc(C(c2ccc(C#N)cc2)n2cncn2)cc1` [Letrozole], on aromatase, the “reduction of estrogen levels” value is reported as 98%.
For `CC#C[C@]1(O)CC[C@H]2[C@@H]3CCC4=CC(=O)CCC4=C3[C@@H](c3ccc(N(C)C)cc3)C[C@@]21C` [Mifepristone], in the experiment with CXCL1 (setting [2]), the EFFECT result is listed as “Detrimental”.
With `O=O` [Oxygen], the EFFECT result with IFNG and in the experiment with TNFSF10 was “Beneficial” throughout.
Regarding `Oc1cccc2cccnc12` [Oxyquinoline], the EFFECT result in the experiment with TNFSF10 is given as “Beneficial”.
On to `CC(=O)CCCCn1c(=O)c2c(ncn2C)n(C)c1=O` [Pentoxifylline, reference compound], for which, in the experiment on TNFSF10 (setting [1]), the EFFECT entry is “Beneficial”.
`CN1C(C(=O)Nc2ccccn2)=C(O)c2ccccc2S1(=O)=O` [Piroxicam]: the EFFECT entry in the experiment on CXCL1 (setting [2]) is “Detrimental”.
`C[C@]12C=CC(=O)C=C1CC[C@@H]1[C@@H]2[C@@H](O)C[C@@]2(C)[C@H]1CC[C@]2(O)C(=O)CO` [Prednisolone]: the EFFECT entry with CXCL1 is “Detrimental”.
`CC(=O)[C@H]1CC[C@H]2[C@@H]3CCC4=CC(=O)CC[C@]4(C)[C@H]3CC[C@]12C` [Progesterone]: the EFFECT entry in the experiment on CXCL1 (setting [2]), in the experiment on MIG (setting [4]) and with TNFSF10 (setting [1]) was “Detrimental” in each case.
Consider `Oc1ccc(/C=C/c2cc(O)cc(O)c2)cc1` [Resveratrol, 3,5,4′-trihydroxy-trans-stilbene], for which the EFFECT entry in the experiment with CXCL1 (setting [2]) is listed as “Detrimental”; with IFNG (setting [3]) it was “Detrimental”; with CCL11, “Beneficial”.
Regarding `NC(=O)c1ncn([C@@H]2O[C@H](CO)[C@@H](O)[C@H]2O)n1` [Ribavirin, reference compound], the EFFECT result in the experiment with IFNG (setting [3]) is on record as “Detrimental”.
For `[Se]` [Selenium], the values for the EFFECT entry in the experiment with CXCL1 (setting [2]), in the experiment on MIG (setting [4]) and with TNFSF10 (setting [1]) were “Beneficial”, “Beneficial” and “Detrimental”, respectively.
Take `[Ag]` [Silver]: the EFFECT entry in the experiment on TNFSF10 (setting [1]) is recorded as “Detrimental”.
With `O=C([O-])CC([S-])C(=O)[O-].[Au+].[Na+].[Na+]` (stereo not drawn) [Sodium aurothiomalate], the EFFECT result in the experiment on CXCL1 (setting [2]) is “Detrimental”.
As to `O.O.O.O.O.O.O.O.O.O=C([O-])[C@@H]1[O][Sb]2([O-])([O][Sb]34([OH])[O][C@H]([C@H](O)CO)[C@H]([O]3)[C@H](C(=O)[O-])[O]4)[O][C@H]([C@H](O)CO)[C@@H]1[O]2.[Na+].[Na+].[Na+]` [Sodium stibogluconate], the EFFECT result in the experiment with IFNG (setting [3]) is “Detrimental”.
Take `C=CC[C@@H]1/C=C(\C)C[C@H](C)C[C@H](OC)[C@H]2O[C@@](O)(C(=O)C(=O)N3CCCC[C@H]3C(=O)O[C@H](/C(C)=C/[C@@H]3CC[C@@H](O)[C@H](OC)C3)[C@H](C)[C@@H](O)CC1=O)[C@H](C)C[C@@H]2OC` [Tacrolimus]: in the experiment on CCL11, the EFFECT result is on record as “Beneficial”.
As for `Cn1c(=O)c2[nH]cnc2n(C)c1=O` [Theophylline], the EFFECT result in the experiment with IFNG is given as “Detrimental”.
Take `CC1=C(/C=C/C(C)=C/C=C/C(C)=C/C(=O)O)C(C)(C)CCC1` [Tretinoin, reference compound]: the figures for the EFFECT result in the experiment on CXCL1 (setting [2]), in the experiment on IFNG (setting [3]) and in the experiment on TNFSF10 (setting [1]) were “Detrimental”, “Detrimental” and “Beneficial”, respectively.
Consider `CC[C@]1(O)C[C@H]2CN(CCc3c([nH]c4ccccc34)[C@@](C(=O)OC)(c3cc4c(cc3OC)N(C=O)[C@H]3[C@@](O)(C(=O)OC)[C@H](OC(C)=O)[C@]5(CC)C=CCN6CC[C@]43[C@@H]65)C2)C1` [Vincristine], for which the EFFECT entry in the experiment with MIG (setting [4]) is “Detrimental”; in the experiment with IFNG (setting [3]) it was “Beneficial”; in the experiment with TNFSF10 (setting [1]), “Beneficial”.
Regarding `O=C(CCCCCCC(=O)Nc1ccccc1)NO` [Vorinostat, reference compound], the EFFECT entry in the experiment with TNFSF10 (setting [1]) is listed as “Beneficial”.
With `O=S(=O)([O-])[O-].[Zn+2]` [Zinc sulfate], in the experiment with IFNG, the EFFECT entry is “Beneficial”.
On to `[Zn]` [Zinc], for which the EFFECT entry in the experiment with IFNG (setting [3]) is “Beneficial”; with CCL11, “Detrimental”.
For the molecule `CN(Cc1cnc2nc(N)nc(N)c2n1)c1ccc(C(=O)N[C@@H](CCC(=O)O)C(=O)O)cc1` [methotrexate, Methotrexate, reference compound], the EFFECT entry with CXCL1 (setting [2]) is reported as “Detrimental; also recorded: Beneficial”; in the experiment with IFNG (setting [3]), “Detrimental”; in the experiment with TNFSF10 (setting [1]) it was “Beneficial”; in the experiment with CCL11 it was “Beneficial”.
Arsenic trioxide: the EFFECT entry in the experiment with MIG (setting [4]) is given as “Beneficial”; with TNFSF10 (setting [1]), “Detrimental; also recorded: Beneficial”.
For Vitamin E, the EFFECT result with TNFSF10 (setting [1]) was “Detrimental”.

B1: MIG: recombinant mouse MIG (R&D systems, catalog number 492-MM) (protein, UniProt Q07325 23-125, looked up)
C-X-C motif chemokine 9: TPVVRKGRCSCISTNQGTIHLQSLKDLKQFAPSPSCEKIEIIATLKNGVQTCLNPDSADVKELIKKWEKQVSQKKKQKNGKKHQKKKVLKVRKSQRSRQKKTT
With B1, the “effect on vasorelaxation to Acetylcholine” value with Mouse thoracic aortas is given as “impairs vascular function”.

These data come from patent publication US20220291237A1 (priority 2021, published 2022).
